Data: patent US10597390B2, “Indoles for use in influenza virus infection” (Janssen Sciences Ireland UC, priority 2014, dated 2020)
pIC50: −log10 of the molar value.

How the values were obtained:
MDCK cells = settings: dog, 3 days
[1] = tested on: influenza virus A/Taiwan/1/86 (H1N1); experiment: organism not typed; assay type: cell-based; settings: CPE in MDCK cells, three days post-virus exposure, ATPlite
in vitro = settings: dog, TOX MDCK CC50

Question: Which CC50 (MDCK cells) does the source give for `N#Cc1cc(F)c(N[C@H]2C3CCC(CC3)[C@@H]2C(=O)O)nc1-c1c[nH]c2c(F)cc(F)cc12` (mixture of isomers) [Compound 216] here?
Answer: Its CC50 is 70 nM.

Question: What about the pIC50 [1] of the same compound?
Answer: Its pIC50 is 8.70.

Question: For `O=C(N[C@@H]1CCC[C@H](Nc2nc(-c3c[nH]c4c(F)cc(Cl)cc34)ncc2F)C1)c1ccccn1` (racemic) [Compound 27], which CC50 (MDCK cells) is on record?
Answer: Its CC50 is 9500 nM.

Question: And the pIC50 [1]?
Answer: The pIC50 was 7.96.

Question: Which CC50 (MDCK cells) does the source give for `Cc1cc(C(=O)N[C@@H]2CCC[C@H](Nc3nc(-c4c[nH]c5c(F)cc(F)cc45)ncc3F)C2)on1` (racemic) [Compound 91] here?
Answer: The CC50 was 18600 nM.

Question: What about the pIC50 [1] of the same compound?
Answer: Its pIC50 is 7.68.

Question: With `Cc1cc(C(=O)N[C@@H]2CCC[C@@H](Nc3nc(-c4c[nH]c5c(F)cc(F)cc45)c(C#N)cc3F)C2)on1` (racemic) [Compound 207] as the compound, how does the melting point read?
Answer: Its melting point is 285 °C.

Question: What about the CC50 (MDCK cells) of the same compound?
Answer: Its CC50 is 8000 nM.

Question: What about the pIC50 ([1]; MDCK, 72 h) of the same compound?
Answer: Its pIC50 is 7.92.

Question: Which melting point does the source give for `Cc1cc(C(=O)N[C@@H]2CCC[C@H](Nc3nc(-c4c[nH]c5c(F)cc(Cl)cc45)ncc3F)C2)on1` [Compound 44] here?
Answer: The melting point was 255.1 °C.

Question: What about the CC50 (MDCK cells) of the same compound?
Answer: The CC50 was 3500 nM.

Question: What about the pIC50 [1] of the same compound?
Answer: The pIC50 was 7.82.

Question: For `Cc1cc(C(=O)N[C@@H]2CCC[C@H](Nc3nc(-c4c[nH]c5c(F)cc(F)cc45)ncc3F)C2)nn1C` [Compound 129], which melting point is on record?
Answer: Its melting point is 158 °C.

Question: What about the CC50 (MDCK cells) of the same compound?
Answer: The CC50 was 7500 nM.

Question: And the pIC50 [1]?
Answer: The pIC50 was 8.10.

Question: Which melting point does the source give for `Cc1cc(C(=O)N[C@@H]2CCC[C@H](Nc3nc(-c4c[nH]c5c(F)cc(F)cc45)ncc3F)C2)on1` [Compound 133] here?
Answer: Its melting point is 278.5 °C.

Question: What about the CC50 (MDCK cells) of the same compound?
Answer: The CC50 was 7500 nM.

Question: And the pIC50 ([1]; MDCK, 72 h)?
Answer: The pIC50 was 7.89.

Question: For `N#Cc1cc(F)c(N[C@@H]2CCC[C@H](NC(=O)N3CCCC3)C2)nc1-c1c[nH]c2c(F)cc(F)cc12` [Compound 163], which CC50 (MDCK cells) is on record?
Answer: Its CC50 is 13200 nM.

Question: What about the pIC50 [1] of the same compound?
Answer: Its pIC50 is 6.14.

Question: Which CC50 (MDCK cells) does the source give for `Cn1ccc(C(=O)N[C@@H]2CCC[C@@H](Nc3nc(-c4c[nH]c5c(F)cc(F)cc45)c(C#N)cc3F)C2)n1` [Compound 206] here?
Answer: The CC50 was over 25000 nM.

Question: And the pIC50 [1]?
Answer: Its pIC50 is 8.52.

Question: Which melting point does the source give for `Cc1cc(C(=O)N[C@@H]2CCC[C@H](Nc3nc(-c4c[nH]c5c(F)cc(F)cc45)c(C#N)cc3F)C2)nn1C` [Compound 211] here?
Answer: The melting point was 235 °C.

Question: And the CC50 (MDCK cells)?
Answer: The CC50 was over 25000 nM.

Question: And the pIC50 [1]?
Answer: The pIC50 was 8.40.

Question: For `N#Cc1cc(F)c(N[C@H]2C3CCC(CC3)[C@@H]2C(=O)O)nc1-c1c[nH]c2c(F)cc(F)cc12` [Compound 215], which CC50 (MDCK cells) is on record?
Answer: The CC50 was 150 nM.

Question: And the pIC50 [1]?
Answer: The pIC50 was 9.10.

Question: Which CC50 (MDCK cells) does the source give for `Cc1cc(C(=O)N[C@@H]2CCC[C@@H](Nc3nc(-c4c[nH]c5c(F)cc(F)cc45)c(C#N)cc3F)C2)on1` [Compound 220] here?
Answer: The CC50 was 3500 nM.

Question: What about the pIC50 [1] of the same compound?
Answer: Its pIC50 is 8.00.

Question: Which melting point does the source give for `Cc1cc(F)c2[nH]cc(-c3ncc(F)c(NC(CC(=O)O)C(C)(C)c4nccs4)n3)c2c1` (centres unmarked) [Compound 233] here?
Answer: Its melting point is 237.2 °C.

Question: And the CC50 at 3 days (in vitro)?
Answer: Its CC50 at 3 days is 17300 nM.

Question: And the pIC50 ([1]; MDCK, 72 h)?
Answer: The pIC50 was 7.82.

Question: Which results are given for `Cc1cc(F)c2[nH]cc(-c3ncc(F)c(NC(CC(=O)O)C(C)(C)c4ccn(C)n4)n3)c2c1` (centres unmarked) [Compound 234]?
Answer: melting point: 208.5 °C; CC50 at 3 days (in vitro): > 25000 nM; pIC50 ([1]; MDCK, 72 h): 6.34

Question: Which melting point does the source give for `Cc1cc(F)c2[nH]cc(-c3ncc(F)c(N[C@@H](CC(=O)O)C(C)(C)c4ccn(C)n4)n3)c2c1` [Compound 235] here?
Answer: The melting point was over 260 °C.

Question: And the CC50 at 3 days (in vitro)?
Answer: Its CC50 at 3 days is over 25000 nM.

Question: And the pIC50 ([1]; MDCK, 72 h)?
Answer: The pIC50 was 6.72.

Question: What does the source list for `Cn1ccc(C(C)(C)C(CC(=O)O)Nc2nc(-c3c[nH]c4c(F)cc(F)cc34)c(C#N)cc2F)n1` (centres unmarked) [Compound 236]?
Answer: melting point: 246.9 °C; CC50 at 3 days (in vitro): 1500 nM; pIC50 ([1]; MDCK, 72 h): 7.07

Question: Which melting point does the source give for `CC(C)(c1ccccn1)C(CC(=O)O)Nc1nc(-c2c[nH]c3c(F)cc(F)cc23)c(C#N)cc1F` (centres unmarked) [Compound 237, 3-((5-cyano-6-(5,7-difluoro-1H-indol-3-yl)-3-fluoropyridin-2-yl)amino)-4-methyl-4-(pyridin-2-yl)pentanoic Acid] here?
Answer: Its melting point is 230.8 °C.

Question: What about the CC50 at 3 days (in vitro) of the same compound?
Answer: The CC50 at 3 days was 400 nM.

Question: What about the pIC50 ([1]; MDCK, 72 h) of the same compound?
Answer: Its pIC50 is 8.52.

Question: With `Cc1cc(F)c2[nH]cc(-c3ncc(F)c(N[C@@H](CC(=O)O)C(C)(C)c4ccccn4)n3)c2c1` [Compound 239] as the compound, how does the melting point read?
Answer: The melting point was 219 °C.

Question: And the CC50 at 3 days (in vitro)?
Answer: The CC50 at 3 days was 15300 nM.

Question: And the pIC50 ([1]; MDCK, 72 h)?
Answer: Its pIC50 is 8.00.

Question: What does the source list for `COC(C)(C)C(CC(=O)O)Nc1nc(-c2c[nH]c3c(F)cc(F)cc23)c(C#N)cc1F` (centres unmarked) [Compound 240, 3-((5-cyano-6-(5,7-difluoro-1H-indol-3-yl)-3-fluoropyridin-2-yl)amino)-4-methoxy-4-methylpentanoic Acid]?
Answer: melting point: 218.8 °C; CC50 at 3 days (in vitro): 900 nM; pIC50 ([1]; MDCK, 72 h): 7.33

Question: What does the source list for `C=CCC(C)(C)C(CC(=O)O)Nc1nc(-c2c[nH]c3c(F)cc(F)cc23)c(C#N)cc1F` (centres unmarked) [Compound 241, 3-((5-cyano-6-(5,7-difluoro-1H-indol-3-yl)-3-fluoropyridin-2-yl)amino)-4,4-dimethylhept-6-enoic Acid]?
Answer: melting point: > 260 °C; CC50 at 3 days (in vitro): 50 nM; pIC50 ([1]; MDCK, 72 h): 7.92

Question: For `C=CCC(C)(C)[C@@H](CC(=O)O)Nc1nc(-c2c[nH]c3c(F)cc(C)cc23)ncc1F` [Compound 243], which melting point is on record?
Answer: The melting point was under 280 °C.

Question: What about the CC50 at 3 days (in vitro) of the same compound?
Answer: Its CC50 at 3 days is 600 nM.

Question: And the pIC50 ([1]; MDCK, 72 h)?
Answer: Its pIC50 is 7.34.

Question: What does the source list for `CC1(C(CC(=O)O)Nc2nc(-c3c[nH]c4c(F)cc(F)cc34)c(C#N)cc2F)CCCC1` (centres unmarked) [Compound 244, 3-((5-cyano-6-(5,7-difluoro-1H-indol-3-yl)-3-fluoropyridin-2-yl)amino)-3-(1-methylcyclopentyl)propanoic Acid]?
Answer: melting point: 150 °C; CC50 at 3 days (in vitro): 60 nM; pIC50 ([1]; MDCK, 72 h): 8.30

Question: Which melting point does the source give for `CC1([C@@H](CC(=O)O)Nc2nc(-c3c[nH]c4c(F)cc(F)cc34)c(C#N)cc2F)CCCC1` [Compound 245] here?
Answer: The melting point was 289.6 °C.

Question: What about the CC50 at 3 days (in vitro) of the same compound?
Answer: Its CC50 at 3 days is 700 nM.

Question: And the pIC50 ([1]; MDCK, 72 h)?
Answer: Its pIC50 is 8.52.

Question: What does the source list for `CC1(C(CC(N)=O)Nc2nc(-c3c[nH]c4c(F)cc(F)cc34)c(C#N)cc2F)CCCC1` (centres unmarked) [Compound 246]?
Answer: melting point: 270.1 °C; CC50 at 3 days (in vitro): 6900 nM; pIC50 ([1]; MDCK, 72 h): 6.21

Question: What does the source list for `CC(=O)NCc1cc(F)c(N[C@@H]2CCC[C@H](NC(=O)N3CCCC3)C2)nc1-c1c[nH]c2c(F)cc(F)cc12` [Compound 248]?
Answer: melting point: < 260 °C; CC50 at 3 days (in vitro): > 25000 nM; pIC50 ([1]; MDCK, 72 h): 7.30

Question: With `CN(C)C(=O)C(C)(C)C(CC(=O)O)Nc1nc(-c2c[nH]c3c(F)cc(F)cc23)ncc1F` (centres unmarked) [Compound 251] as the compound, how does the melting point read?
Answer: Its melting point is 253 °C.

Question: And the CC50 at 3 days (in vitro)?
Answer: The CC50 at 3 days was over 25000 nM.

Question: What about the pIC50 ([1]; MDCK, 72 h) of the same compound?
Answer: Its pIC50 is 6.82.

Question: With `CC1(C(CC(=O)O)Nc2nc(-c3c[nH]c4c(F)cc(F)cc34)c(C#N)cc2F)CCOCC1` (centres unmarked) [Compound 255, 3-((5-cyano-6-(5,7-difluoro-1H-indol-3-yl)-3-fluoropyridin-2-yl)amino)-3-(4-methyltetrahydro-2H-pyran-4-yl)propanoic Acid] as the compound, how does the melting point read?
Answer: Its melting point is 151.1 °C.

Question: And the CC50 at 3 days (in vitro)?
Answer: Its CC50 at 3 days is 5300 nM.

Question: What about the pIC50 ([1]; MDCK, 72 h) of the same compound?
Answer: Its pIC50 is 6.77.

Question: Which melting point does the source give for `CC(=O)NCc1cc(F)c(N[C@H]2CCC[C@@H](NC(=O)c3cn(C)cn3)C2)nc1-c1c[nH]c2c(F)cc(F)cc12` [Compound 259] here?
Answer: The melting point was over 260 °C.

Question: What about the CC50 (MDCK cells) of the same compound?
Answer: Its CC50 is over 25000 nM.

Question: What about the pIC50 [1] of the same compound?
Answer: The pIC50 was 6.77.
